Measured values published in US20180371044A1, “PEPTIDOMIMETIC MACROCYCLES” (Aileron Therapeutics, Inc., priority 2015, published 2018).
Where a SMILES comes first, the peptide text is derived from it. Bridges are numbered along the chain shown (N, C = ends). [ ]: non-standard residue; d: D form. NMeY = CN[C@@H](Cc1ccc(O)cc1)C(=O)O; S5 = C=CCCC[C@](C)(N)C(=O)O; Nle = CCCC[C@H](N)C(=O)O

Tests used:
[1] = molecular target: T1, human GHRH receptor (hGHRHR) (Homo sapiens, UniProt Q02643); test: GHRHR agonism measured by cAMP (HTRF) in human 293 cells expressing hGHRHR; type: cell-based; details: 30 min at RT;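 further: receptor expressed transiently or stably, cells stimulated in serum-free medium, EC50 from a non-linear dose-response fit, maximal response defined by reference GHRH stimulation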
T1 construct: expressed in transfected cells; host or cells: Human 293 cells
T1 sequence (Q02643 23-423): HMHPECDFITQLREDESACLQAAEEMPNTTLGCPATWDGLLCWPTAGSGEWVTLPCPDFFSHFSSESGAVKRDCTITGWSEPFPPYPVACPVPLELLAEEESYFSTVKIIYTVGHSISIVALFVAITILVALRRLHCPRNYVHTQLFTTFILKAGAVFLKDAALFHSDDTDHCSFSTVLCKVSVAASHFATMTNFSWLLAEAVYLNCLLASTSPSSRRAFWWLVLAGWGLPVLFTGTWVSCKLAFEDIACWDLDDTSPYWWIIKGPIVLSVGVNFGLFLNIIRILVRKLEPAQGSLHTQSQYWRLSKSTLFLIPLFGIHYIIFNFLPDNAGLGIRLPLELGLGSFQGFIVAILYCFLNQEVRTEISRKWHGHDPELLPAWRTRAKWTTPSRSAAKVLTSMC

[2] = molecular target: T2, GHRHR (Homo sapiens, UniProt Q02643); test: DiscoverX cAMP Hunter eXpress GHRHR CHO-K1 GPCR assay; type: cell-based; details: for Selectivity: EC50 in VIPR1 CHO-K1 cells divided by EC50 in GHRHR CHO-K1 cells; for EC50: GHRHR CHO-K1 cells, cAMP
T2 construct: host or cells: CHO-K1 (cAMP Hunter eXpress GHRHR CHO-K1 GPCR assay kit)
T2 sequence (Q02643 23-423): T1 sequence (Q02643 23-423)
Description: DiscoverX cAmP Hunter eXpress VIPRI CHO-K1 GPCR and GHRHR CHO-K1 GPCR assays kits were used. […] Following ligand stimulation, the functional status of the GPCR is monitored by measuring cellular cAMP levels using a homogeneous, gain of signal competitive immunoassay based on Enzyme Fragment Complementation (EFC). The amount of EFC is measured by analysis with a fluorescent plate reader.
DiscoverX™ cAmP Hunter eXpress VIPR1 CHO-K1 GPCR and GHRHR CHO-K1 GPCR assay kits were used. On the day before the assay, the DiscoverX™ cell lines were defrosted, plated into 384 well plates and allowed to incubate overnight. All the samples were diluted to 2 mM using 100% DMSO. The vials were sonicated and centrifuged to assure all peptides went into solution. The final volumes were small, 80-200 μl. An 80% purity and peptide content was assumed for all samples and dilutions were based on the molecular weights. On the day of the assay, the samples were diluted to 200 μM in water and then to 4 μM in DiscoverX™ assay buffer (supplemented with 0.1% BSA). Serial dilutions were performed on assay day, 16 dilutions from 1000 nM were run side by side in duplicate for each peptide for study. The assays were performed in the 384 well plates with the assistance of a CyBio™ Bi-Well 384 channel liquid handling robot. The samples were analyzed on a Tecan™ Ultra Evolution plate reader according to DiscoverX™ guidelines. The EC50 values were determined using GraphPad™ Prism software. The EC50 value is defined as the concentration of agonist that provokes a response halfway between the baseline and maximum response. […] The selectivity value is the concentration of agonist that provokes a response halfway between the baseline and maximum response in VIPR1 CHO-K1 cells divided by the concentration of agonist that provokes a response halfway between the baseline and maximum response in GHRHR CHO-K1 cells.

[3] = molecular target: T3, VIPR1 (Vasointestinal Peptide Receptor 1) (Homo sapiens, UniProt P32241); test: DiscoverX cAMP Hunter eXpress VIPR1 CHO-K1 GPCR assay; type: cell-based; details: VIPR1 CHO-K1 cells
T3 construct: host or cells: CHO-K1 (cAMP Hunter eXpress VIPR1 CHO-K1 GPCR assay kit)
T3 sequence (P32241 31-457): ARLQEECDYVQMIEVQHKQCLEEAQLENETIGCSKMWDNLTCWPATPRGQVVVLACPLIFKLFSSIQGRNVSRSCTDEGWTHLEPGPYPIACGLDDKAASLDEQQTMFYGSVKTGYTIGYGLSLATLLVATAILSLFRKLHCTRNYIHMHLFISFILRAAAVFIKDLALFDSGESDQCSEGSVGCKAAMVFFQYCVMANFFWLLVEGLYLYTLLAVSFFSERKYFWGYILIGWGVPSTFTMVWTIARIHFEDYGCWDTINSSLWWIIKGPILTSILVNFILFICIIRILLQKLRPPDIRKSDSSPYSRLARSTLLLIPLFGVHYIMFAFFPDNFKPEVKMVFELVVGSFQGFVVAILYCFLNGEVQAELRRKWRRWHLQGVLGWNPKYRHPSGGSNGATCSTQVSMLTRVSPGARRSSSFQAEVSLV
Description: DiscoverX cAmP Hunter eXpress VIPRI CHO-K1 GPCR and GHRHR CHO-K1 GPCR assays kits were used. The DiscoverX kits contain naturally coupled GPCR cell lines designed to detect GPCR signaling through second messenger activation. This signaling involves a membrane bound enzyme called adenylate cyclase. […] receptors modulate cAMP by either inhibiting or stimulating adenylate cyclase, respectively. The DiscoverX cell lines included in the kits utilize the natural coupling status of the GPCR to monitor activation of […] receptors. Following ligand stimulation, the functional status of the GPCR is monitored by measuring cellular cAMP levels using a homogeneous, gain of signal competitive immunoassay based on Enzyme Fragment Complementation (EFC). The amount of EFC is measured by analysis with a fluorescent plate reader.
On the day before the assay, the DiscoverX cell lines were defrosted, plated into 384 well plates and allowed to incubate overnight. All the samples were diluted to 2 mM using 100% DMSO. The vials were sonicated and centrifuged to assure all peptides went into solution. The final volumes were small, 80-200 μl. An 80% purity and peptide content was assumed for all samples and dilutions were based on the molecular weights. On the day of the assay, the samples were diluted to 200 μM in water and then to 4 μM in DiscoverX assay buffer (supplemented with 0.1% BSA). Serial dilutions were performed on assay day, 16 dilutions from 1000 nM were run side by side in duplicate for each peptide for study. The assays were performed in the 384 well plates with the assistance of a CyBio Bi-Well 384 channel liquid handling robot. The samples were analyzed on a Tecan Ultra Evolution plate reader according to DiscoverX guidelines. The EC50 values were determined using GraphPad Prism software. The EC50 value is defined as the concentration of agonist that provokes a response halfway between the baseline and maximum response.
DiscoverX™ cAmP Hunter eXpress VIPR1 CHO-K1 GPCR and GHRHR CHO-K1 GPCR assay kits were used. On the day before the assay, the DiscoverX™ cell lines were defrosted, plated into 384 well plates and allowed to incubate overnight. All the samples were diluted to 2 mM using 100% DMSO. The vials were sonicated and centrifuged to assure all peptides went into solution. The final volumes were small, 80-200 μl. An 80% purity and peptide content was assumed for all samples and dilutions were based on the molecular weights. On the day of the assay, the samples were diluted to 200 μM in water and then to 4 μM in DiscoverX™ assay buffer (supplemented with 0.1% BSA). Serial dilutions were performed on assay day, 16 dilutions from 1000 nM were run side by side in duplicate for each peptide for study. The assays were performed in the 384 well plates with the assistance of a CyBio™ Bi-Well 384 channel liquid handling robot. The samples were analyzed on a Tecan™ Ultra Evolution plate reader according to DiscoverX™ guidelines. The EC50 values were determined using GraphPad™ Prism software. The EC50 value is defined as the concentration of agonist that provokes a response halfway between the baseline and maximum response. (+=>25 nM; ++=>10-25 nM; +++=>1-10 nM; ++++=>0.1-1 nM; +++++=<0.1 nM). […]

[4] = Solubility by measuring turbidity (OD600) in human plasma; type: physicochemical
Description: In some embodiments, a peptidomimetic macrocycle can be prepared based on solubility of the polypeptide, for example if the prepared peptidomimetic macrocycle is determined to be soluble based on visual examination of the turbidity of a solution of the polypeptide. In some embodiments, an aqueous solubility of the peptidomimetic macrocycle is determined by evaluating the turbidity of a solution comprising the peptidomimetic macrocycle. In some embodiments, a plasma solubility of the peptidomimetic macrocycle is determined by evaluating the turbidity of a solution comprising the peptidomimetic macrocycle.
Increasing amounts of SP-3 and SP-133 were added to human plasma. The OD600 of each of the solutions was then measured.

[5] = Plasma compatibility; type: physicochemical
Description: The plasma compatibility of exemplary peptidomimetic macrocycles was also determined. Peptidomimetic macrocycles with a plasma compatability value (PC) that is greater than 0.1 were determined as being plasma compatible.

Compound | EC50 [1] | Selectivity [2] | EC50 [2] | EC50 [3] | OD600 ([4]; 7 mg/mL) | OD600 ([4]; 10 mg/mL) | OD600 ([4]; 12 mg/mL) | OD600 ([4]; 16 mg/mL) | OD600 ([4]; 21 mg/mL) | OD600 ([4]; 27 mg/mL) | OD600 ([4]; 35 mg/mL) | OD600 ([4]; 46 mg/mL) | OD600 ([4]; 59 mg/mL) | OD600 ([4]; 77 mg/mL) | OD600 ([4]; 100 mg/mL) | Plasma Compatability [5] | turbidity ([4]; up to 100 mg/mL)
CCCC[C@H](NC(=O)[C@@H](NC(=O)[C@]1(C)CCCC=CCCC[C@](C)(NC(=O)[C@H](CCCNC(=N)N)NC(=O)[C@H](C)NC(=O)[C@H](CO)NC(=O)[C@H](CC(C)C)NC(=O)[C@H](CCC(N)=O)NC(=O)CNC(=O)[C@H](CC(C)C)NC(=O)[C@@H](NC(=O)[C@H](CCCCN)NC(=O)[C@H](CCCNC(=N)N)NC(=O)[C@H](Cc2ccc(O)cc2)NC(=O)[C@H](CO)NC(=O)[C@]2(C)CCCC=CCCC[C@](C)(NC(=O)[C@H](CC(=O)O)NC(=O)[C@@H](C)NC(=O)[C@@H](N)Cc3ccc(O)cc3)C(=O)N[C@@H]([C@@H](C)CC)C(=O)N[C@@H](Cc3ccccc3)C(=O)N[C@@H]([C@@H](C)O)C(=O)N2)C(C)C)C(=O)N[C@@H](CC(C)C)C(=O)N[C@@H](CC(C)C)C(=O)N[C@@H](CCC(N)=O)C(=O)N1)[C@@H](C)CC)C(=O)N[C@@H](CO)C(=O)N[C@@H](CCCNC(=N)N)C(N)=O [SP-3] (H-Y[dA]D[S5]IFT[S5]SYRKVLGQLSAR[S5]LLQ[S5]I[Nle]SR-NH2; staple 4-8, 21-25) | 1 to 10 nM | +++++ (+++++=>50) | 0.1 to 1 nM | 10 to 25 nM | 0.8 | 1.0 | 1.2 | 1.2 | 1.4 | 1.6 | 1.6 | 1.7 | 1.8 | 1.7 | 1.5 | 0.9 mg/mL | 
CCCC[C@H](NC(=O)[C@@H](NC(=O)[C@H](CC(=O)O)NC(=O)[C@H](CCC(N)=O)NC(=O)[C@H](CC(C)C)NC(=O)[C@H](C)NC(=O)[C@H](CCCCN)NC(=O)[C@H](CCCNC(=N)N)NC(=O)[C@H](C)NC(=O)[C@H](CO)NC(=O)[C@]1(C)CCCC=CCCC[C@](C)(NC(=O)[C@H](CCCCN)NC(=O)[C@H](CCCNC(=N)N)NC(=O)[C@H](Cc2ccc(O)cc2)NC(=O)[C@H](CO)NC(=O)[C@H](CCC(N)=O)NC(=O)[C@@H](NC(=O)[C@H](Cc2ccccc2)NC(=O)[C@@H](NC(=O)[C@H](C)NC(=O)[C@H](CC(=O)O)NC(=O)[C@@H](C)NC(=O)[C@H](Cc2ccc(O)cc2)NC)[C@@H](C)CC)[C@@H](C)O)C(=O)N[C@@H](CC(C)C)C(=O)N[C@@H](C)C(=O)N[C@@H](CCC(N)=O)C(=O)N1)[C@@H](C)CC)C(=O)N[C@@H](CO)C(=O)N[C@@H](CCCNC(=N)N)C(N)=O [SP-69] (H-[NMeY][dA]DAIFTQSYRK[S5]LAQ[S5]SARKALQDI[Nle]SR-NH2; staple 13-17) |  | + (+=<5) | 0.1 to 1 nM | 0.1 to 1 nM |  |  |  |  |  |  |  |  |  |  |  | 1.6 mg/mL | 
SP-133: GHRH peptidomimetic macrocycle (YADAIFTASYRKALAQASARKALQDILSR; not fully specified; D-residues; non-natural residues; cyclised or stapled) |  | ++ (++=>5-15) | 1 to 10 nM | > 25 nM | 0.0 | 0.0 | 0.0 | 0.0 | 0.0 | 0.0 | 0.0 | 0.0 | 0.0 | 0.0 | 0.0 | >10 mg/mL | no turbidity
CCCC[C@H](NC(=O)[C@@H](NC(=O)[C@H](CC(=O)O)NC(=O)[C@H](CCC(N)=O)NC(=O)[C@H](CC(C)C)NC(=O)[C@H](C)NC(=O)[C@H](CCCCN)NC(=O)[C@H](CCCNC(=N)N)NC(=O)[C@H](C)NC(=O)[C@H](CO)NC(=O)[C@]1(C)CCCC=CCCC[C@](C)(NC(=O)[C@H](CCCCN)NC(=O)[C@H](CCCNC(=N)N)NC(=O)[C@H](Cc2ccc(O)cc2)NC(=O)[C@H](CO)NC(=O)[C@H](C)NC(=O)[C@@H](NC(=O)[C@H](Cc2ccccc2)NC(=O)[C@@H](NC(=O)[C@H](C)NC(=O)[C@H](CC(=O)O)NC(=O)[C@H](C)NC(=O)[C@H](Cc2ccc(O)cc2)NC)[C@@H](C)CC)[C@@H](C)O)C(=O)N[C@@H](CC(C)C)C(=O)N[C@@H](C)C(=O)N[C@@H](CCC(N)=O)C(=O)N1)[C@@H](C)CC)C(=O)N[C@@H](CO)C(=O)N[C@@H](CCCNC(=N)N)C(N)=O [SP-12] (H-[NMeY]ADAIFTASYRK[S5]LAQ[S5]SARKALQDI[Nle]SR-NH2; staple 13-17) | ≤ 1 nM | + (+=<5) | < 0.1 nM | < 0.1 nM |  |  |  |  |  |  |  |  |  |  |  | 1.6 mg/mL | 
